Where two headings read alike, the source gives them in different places.
How the values were obtained:
hCYP2D6*1 and hCYPOR = hCYP2D6*1 and hCYPOR (Homo sapiens, UniProt P10635); details: V79MZh2D6*1-hOR homogenate; 200 μM racemic bufuralol
Description: 30 μg of Sca I linearized pSV450h2D6*1 DNA and 1 μg of Sca I linearized pRc/RSV-hCYPOR DNA were transfected. […] As in the case of transfection samples T1-T5, the expression vector pSV450h2D6*1 was employed in a 30fold excess over resistance vector pRc/RSV-hCYPOR.

hCYP2D6 1 [1] = biological target: T1, hCYP2D6 1 (Homo sapiens, UniProt P10635); details: V79MZh2D6*1 homogenate, NADPH (Bogni, 1999); racemic bufuralol; cited from earlier work
hCYP2D6 1 [2] = biological target: T1, hCYP2D6 1; details: cited from earlier work
hCYP2D6 1 [3] = details: cited from earlier work; for Km: racemic bufuralol
hCYP2D6 [4] = biological target: T2, hCYP2D6 (Homo sapiens, UniProt P10635); assay: Effect of DMSO on tamoxifen-4-hydroxylase activity; assay type: biochemical; design: expressed in transfected cells; host or cells: V79MZ Chinese hamster fibroblasts (V79MZh2D6*1, DSM ACC2446; also V79MZh2D6*1-H and -S)
hCYP2D6 [5] = biological target: T2, hCYP2D6
hCYP2D6 9 = hCYP2D6 9 (Homo sapiens, UniProt P10635, DEL281-281); assay: Effect of quinidine on the stability of hCYP2D6 (CO difference spectra); details: hCYP2D6 9 (V79MZh2D6*9); quinidine added to the culture medium during cultivation
Description: For the preparation of a cell homogenate, the V79MZ cells were cultured in at least three 250 ml tissue culture flasks up to a confluence of 80-100%. […] The medium was discarded, followed by rinsing twice with 5 ml icecold buffer (100 mM potassium phosphate, pH 7.4). The cells were loosened from the dish by means of a rubber scraper into 4 ml of icecold buffer, combined and pelleted by centrifugation for 10 min at 1500×g and 4° C. […] All aliquots were shock frozen in liquid nitrogen to disrupt the cells and afterwards stored at −80° C. until use.
The supernatant was introduced into a 2 ml glas-on-glas homogenizator, reduced by adding several crystals of sodium dithionite (Sigma, Deisenhofen) followed by 15 strokes, and split up between two quartz cuvettes.

human liver microsomes = details: cited from earlier work; for contribution to the 4-hydroxylation of tamoxifen: human liver microsomes (Crewe et al., 1997); for tamoxifen-4-hydroxylation activity: 1 μM tamoxifen (Crewe et al., 1997)
V79MZh2D6 cells [6] = assay: Supplementation of culture medium with heme sources (cytotoxic limit, bufuralol hydroxylase activity); details: up to the cytotoxic limit
V79MZh2D6 cells [7] = test system: V79MZh2D6 cells
[8] = AHH-1 TK+/− (h2D6Val/OR) microsomes, CYPOR/NADPH (Gentest, produkt # M117r)
[9] = E. coli, purified, CYPOR/NADPH (Gillam et al., 1995)
[10] = Sf9 insect cells cell extract, CYPOR/NADPH (Paine et al., 1996)
[11] = AHH-1 TK+/− (h2D6Metv2) microsomes, NADPH (Penman et al., 1993)
[12] = Hep G2 cell lysate, CuOOH (Tyndale et al., 1991a)
[13] = S. cerevisiae W(R) microsomes, Yred/NADPH (Oscarson et al., 1997)
[14] = Sf9 insect cells membranes, CYPOR/NADPH (Evert et al., 1997)
[15] = Sf9 insect cells membranes, CYPOR/NADPH (Patten et al., 1996)

T1 sequence (P10635 whole entry): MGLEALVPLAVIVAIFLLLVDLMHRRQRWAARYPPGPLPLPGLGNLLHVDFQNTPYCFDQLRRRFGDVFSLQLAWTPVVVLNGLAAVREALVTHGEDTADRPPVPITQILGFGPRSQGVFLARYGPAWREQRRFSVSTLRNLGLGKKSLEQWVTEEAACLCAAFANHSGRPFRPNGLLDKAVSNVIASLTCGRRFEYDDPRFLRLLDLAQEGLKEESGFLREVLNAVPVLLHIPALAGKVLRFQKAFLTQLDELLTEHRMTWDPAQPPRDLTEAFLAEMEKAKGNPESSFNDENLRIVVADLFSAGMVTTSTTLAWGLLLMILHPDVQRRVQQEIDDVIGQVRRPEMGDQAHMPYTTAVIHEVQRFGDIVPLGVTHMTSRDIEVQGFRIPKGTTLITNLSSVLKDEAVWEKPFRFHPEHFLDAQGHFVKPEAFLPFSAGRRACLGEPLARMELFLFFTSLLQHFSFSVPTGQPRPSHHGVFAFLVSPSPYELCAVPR
T2 sequence (P10635 whole entry): as above
Chain of hCYP2D6 9 (P10635 with tags, fused parts or gaps DEL281-281): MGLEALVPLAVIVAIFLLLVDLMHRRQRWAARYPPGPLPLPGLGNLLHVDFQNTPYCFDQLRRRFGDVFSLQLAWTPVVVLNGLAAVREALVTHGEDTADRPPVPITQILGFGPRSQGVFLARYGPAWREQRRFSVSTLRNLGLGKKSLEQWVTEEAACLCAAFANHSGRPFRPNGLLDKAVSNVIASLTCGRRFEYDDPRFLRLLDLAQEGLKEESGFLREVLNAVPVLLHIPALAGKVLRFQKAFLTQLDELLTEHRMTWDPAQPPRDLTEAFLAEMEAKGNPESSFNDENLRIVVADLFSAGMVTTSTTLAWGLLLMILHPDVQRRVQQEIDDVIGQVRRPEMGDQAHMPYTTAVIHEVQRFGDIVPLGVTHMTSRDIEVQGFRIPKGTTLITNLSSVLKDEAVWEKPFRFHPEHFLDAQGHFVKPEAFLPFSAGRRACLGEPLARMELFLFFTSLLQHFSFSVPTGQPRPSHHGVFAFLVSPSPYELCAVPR

## CCc1cccc2cc(C(O)CNC(C)(C)C)oc12 (racemic) [racemic bufuralol]
hCYP2D6*1 and hCYPOR
  bufuralol hydroxylase activity: 143 ± 6 pmol/mg/min
hCYP2D6 1 [1]
  Vmax (+/−): 153 ± 26 pmol/mg/min
hCYP2D6 1 [2]; [8]
  Reaction rate (+/−): 10.38 min⁻¹
  Vmax (+/−): 550 pmol/mg/min
hCYP2D6 1 [2]; purified from human liver, CYPOR/NADPH (Distlerath et al., 1985)
  Reaction rate (+/−): 4.4 to 6.4 min⁻¹
hCYP2D6 1 [3]; [9]
  Reaction rate (+/−): 1.2 ± 0.1 min⁻¹
  Km: 39 ± 5 µM
hCYP2D6 1 [3]; [10]
  Reaction rate (+/−): 12.23 min⁻¹
  Vmax (+/−): 370 pmol/mg/min
  Km: 4.7 µM

## CCc1cccc2cc([C@H](O)CNC(C)(C)C)oc12 [(+)-bufuralol]
hCYP2D6 1 [3]; AHH-1 TK+/− (2D6Met/Hol) cell lysate, NADPH (Crespi et al., 1991)
  Vmax (+): 68 ± 0 pmol/mg/min
hCYP2D6 1 [3]; AHH-1 TK+/− (h2D6Metv2) cell lysate, NADPH (Penman et al., 1993)
  Vmax (+): 126 ± 1 pmol/mg/min
hCYP2D6 1 [3]; [11]
  Reaction rate (+): 4.5 min⁻¹
  Vmax (+): 723 ± 35 pmol/mg/min
hCYP2D6 1 [3]; COS-1 cells homogenate, CYPOR/NADPH (Johansson et al., 1994)
  Vmax (+): 3.4 pmol/mg/min
hCYP2D6 1 [3]; COS-1 cells homogenate, NADPH (Kagimoto et al., 1990)
  Vmax (+): 20 to 50 pmol/mg/min
hCYP2D6 1 [3]; [12]
  Reaction rate (+): 2.3 min⁻¹
  Vmax (+): 34.1 pmol/mg/min
hCYP2D6 1 [3]; [13]
  Reaction rate (+): 10 min⁻¹
  Vmax (+): 116 pmol/mg/min
hCYP2D6 1 [3]; [14]
  Reaction rate (+): 26.2 ± 0.4 min⁻¹
  Vmax (+): 17500 ± 2700 pmol/mg/min
hCYP2D6 1 [3]; [15]
  Reaction rate (+): 0.96 min⁻¹
  Vmax (+): 500 to 1000 pmol/mg/min

## C[S+](C)[O-] [DMSO, dimethylsulfoxide]
hCYP2D6 [4]; 10% DMSO
  tamoxifen-4-hydroxylase activity relative to that obtained at […] DMSO: about 20%
hCYP2D6 [4]; up to a DMSO concentration of […]
  effect on tamoxifen-4-hydroxylase activity: only sligthly affected

## CC/C(=C(\c1ccccc1)c1ccc(OCCNC)cc1)c1ccccc1 [Z-N-demethyl-tamoxifen]
hCYP2D6 [5]
  metabolism by V79MZh2D6 homogenate (hCYP2D6-catalyzed hydroxylation): proceeded well

## CC/C(=C(\c1ccccc1)c1ccc(OCCN)cc1)c1ccccc1 [Z-N-didemethyl-tamoxifen]
hCYP2D6 [5]
  metabolism by V79MZh2D6 homogenate (hCYP2D6-catalyzed hydroxylation): negligible

## CC/C(=C(\c1ccccc1)c1ccc(OCC[N+](C)(C)[O-])cc1)c1ccccc1 [Z-Tamoxifen-N-oxide]
hCYP2D6 [5]
  metabolism by V79MZh2D6 homogenate (hCYP2D6-catalyzed hydroxylation): only to a minor extent

## C=C[C@H]1C[N@@]2CC[C@H]1C[C@@H]2[C@@H](O)c1ccnc2ccc(OC)cc12 [quinidine]
hCYP2D6 9
  increase in the amount of cytochrome P450: 4-6 fold

## CC/C(=C(\c1ccccc1)c1ccc(OCCN(C)C)cc1)c1ccccc1 [tamoxifen]
Human liver microsomes; hCYP2C9*1
  contribution to the 4-hydroxylation of tamoxifen: +
Human liver microsomes; hCYP2D6*1
  contribution to the 4-hydroxylation of tamoxifen: +
Human liver microsomes; hCYP2E1
  contribution to the 4-hydroxylation of tamoxifen: −
Human liver microsomes; hCYP3A4
  contribution to the 4-hydroxylation of tamoxifen: +
Human liver microsomes; human liver microsomes of extensive metabolizers
  tamoxifen-4-hydroxylation activity: 1.1-3 pmol/min/mg protein
Human liver microsomes; human liver microsomes of poor metabolizers
  tamoxifen-4-hydroxylation activity: 0.7-0.8 pmol/min/mg protein

## hemin chloride
V79MZh2D6 cells [6]
  bufuralol hydroxylase activity per mg total protein in the cell homogenate after supplementation: no increased bufuralol hydroxylase activity
V79MZh2D6 cells [7]
  cytotoxic limit: 10 µM
